Test results reported in ChEMBL document CHEMBL3112450, “Synthesis and in vitro antitumor evaluation of primary amine substituted quinazoline linked benzimidazole” (Bioorg Med Chem Lett, 2014).

Columns and labels:
[1] = Cytotoxicity against human UACC257 cells assessed as cell growth at 10^-7 M after 48 hrs by SRB assay; assay type: functional; details: UACC-257, 48 h, read-out: Activity
NCI-H23 = test: Cytotoxicity against human NCI-H23 cells assessed as growth inhibition at 10 uM after 48 hrs by SRB assay; assay type: functional; details: NCI-H23, 48 h, read-out: GI
[2] = Cytotoxicity against human EKVX cells assessed as growth inhibition at 10 uM after 48 hrs by SRB assay; assay type: functional; details: read-out: GI
[3] = Cytotoxicity against human NCI-ADR-RES cells assessed as growth inhibition at 10 uM after 48 hrs by SRB assay; assay type: functional; details: read-out: GI
NCI-H226 = test: Cytotoxicity against human NCI-H226 cells assessed as growth inhibition at 10 uM after 48 hrs by SRB assay; assay type: functional; details: NCI-H226, 48 h, read-out: GI
A549 [4] = test: Cytotoxicity against human A549 cells assessed as cell growth at 10^-8 M after 48 hrs by SRB assay; assay type: functional; details: A549, 48 h, read-out: Activity
BT-549 = test: Cytotoxicity against human BT549 cells assessed as growth inhibition at 10 uM after 48 hrs by SRB assay; assay type: functional; details: BT-549, 48 h, read-out: GI
[5] = Cytotoxicity against human UACC257 cells after 48 hrs by SRB assay; assay type: functional; details: UACC-257, 48 h
A549 [6] = test: Cytotoxicity against human A549 cells assessed as cell growth at 10^-4 M after 48 hrs by SRB assay; assay type: functional; details: A549, 48 h, read-out: Activity
A549 [7] = test: Cytotoxicity against human A549 cells assessed as cell growth at 10^-6 M after 48 hrs by SRB assay; assay type: functional; details: A549, 48 h, read-out: Activity
A549 [8] = test: Cytotoxicity against human A549 cells assessed as cell growth at 10^-7 M after 48 hrs by SRB assay; assay type: functional; details: A549, 48 h, read-out: Activity
[9] = Cytotoxicity against human UACC257 cells assessed as cell growth at 10^-4 M after 48 hrs by SRB assay; assay type: functional; details: UACC-257, 48 h, read-out: Activity
A549 [10] = test: Cytotoxicity against human A549 cells after 48 hrs by SRB assay; assay type: functional; details: A549, 48 h
OVCAR-3 = test: Cytotoxicity against human OVCAR3 cells assessed as cell growth at 10^-4 M after 48 hrs by SRB assay; assay type: functional; details: OVCAR-3, 48 h, read-out: Activity
SNB-75 [11] = test: Cytotoxicity against human SNB75 cells after 48 hrs by SRB assay; assay type: functional, cell-based; details: SNB-75, 48 h
SNB-75 [12] = test: Cytotoxicity against human SNB75 cells assessed as cell growth at 10^-8 M after 48 hrs by SRB assay; assay type: functional; details: SNB-75, 48 h, read-out: Activity
HT-29 = test: Cytotoxicity against human HT-29 cells assessed as growth inhibition at 10 uM after 48 hrs by SRB assay; assay type: functional; details: HT-29, 48 h, read-out: GI
HCT-116 = test: Cytotoxicity against human HCT116 cells assessed as growth inhibition at 10 uM after 48 hrs by SRB assay; assay type: functional; details: HCT-116, 48 h, read-out: GI
[13] = Cytotoxicity against human UO31 cells assessed as growth inhibition at 10 uM after 48 hrs by SRB assay; assay type: functional; details: UO-31, 48 h, read-out: GI
NCI-H522 = test: Cytotoxicity against human NCI-H522 cells assessed as growth inhibition at 10 uM after 48 hrs by SRB assay; assay type: functional; details: NCI-H522, 48 h, read-out: GI
PC-3 = test: Cytotoxicity against human PC3 cells assessed as growth inhibition at 10 uM after 48 hrs by SRB assay; assay type: functional; details: PC-3, 48 h, read-out: GI
HL-60(TB) = test: Cytotoxicity against human HL-60(TB) cells assessed as growth inhibition at 10 uM after 48 hrs by SRB assay; assay type: functional; details: HL-60, 48 h, read-out: GI
[14] = Cytotoxicity against human OVCAR4 cells assessed as growth inhibition at 10 uM after 48 hrs by SRB assay; assay type: functional; details: OVCAR-4, 48 h, read-out: GI
COLO 205 = test: Cytotoxicity against human COLO205 cells assessed as growth inhibition at 10 uM after 48 hrs by SRB assay; assay type: functional; details: COLO 205, 48 h, read-out: GI
SK-MEL-5 = test: Cytotoxicity against human SK-MEL-5 cells assessed as growth inhibition at 10 uM after 48 hrs by SRB assay; assay type: functional; details: SK-MEL-5, 48 h, read-out: GI
HCT-15 = test: Cytotoxicity against human HCT15 cells assessed as growth inhibition at 10 uM after 48 hrs by SRB assay; assay type: functional; details: HCT-15, 48 h, read-out: GI
K562 = test: Cytotoxicity against human K562 cells assessed as growth inhibition at 10 uM after 48 hrs by SRB assay; assay type: functional; details: K562, 48 h, read-out: GI
CCRF-CEM = test: Cytotoxicity against human CCRF-CEM cells assessed as growth inhibition at 10 uM after 48 hrs by SRB assay; assay type: functional; details: read-out: GI
SR = test: Cytotoxicity against human SR cells assessed as growth inhibition at 10 uM after 48 hrs by SRB assay; assay type: functional; details: read-out: GI
SNB-75 [15] = test: Cytotoxicity against human SNB75 cells assessed as cell growth at 10^-7 M after 48 hrs by SRB assay; assay type: functional; details: SNB-75, 48 h, read-out: Activity
CAKI-1 = test: Cytotoxicity against human Caki1 cells assessed as growth inhibition at 10 uM after 48 hrs by SRB assay; assay type: functional; details: CAKI-1, 48 h, read-out: GI
SW-620 = test: Cytotoxicity against human SW620 cells assessed as growth inhibition at 10 uM after 48 hrs by SRB assay; assay type: functional; details: SW-620, 48 h, read-out: GI
MCF7 = test: Cytotoxicity against human MCF7 cells assessed as growth inhibition at 10 uM after 48 hrs by SRB assay; assay type: functional; details: MCF7, 48 h, read-out: GI
UACC-62 = test: Cytotoxicity against human UACC62 cells assessed as growth inhibition at 10 uM after 48 hrs by SRB assay; assay type: functional; details: UACC-62, 48 h, read-out: GI
SNB-75 [16] = test: Cytotoxicity against human SNB75 cells assessed as cell growth at 10^-4 M after 48 hrs by SRB assay; assay type: functional; details: SNB-75, 48 h, read-out: Activity
SK-MEL-28 = test: Cytotoxicity against human SK-MEL-28 cells assessed as growth inhibition at 10 uM after 48 hrs by SRB assay; assay type: functional; details: SK-MEL-28, 48 h, read-out: GI
MDA-MB-468 = test: Cytotoxicity against human MDA-MB-468 cells assessed as growth inhibition at 10 uM after 48 hrs by SRB assay; assay type: functional; details: MDA-MB-468, 48 h, read-out: GI
KM12 = test: Cytotoxicity against human KM12 cells assessed as growth inhibition at 10 uM after 48 hrs by SRB assay; assay type: functional; details: KM12, 48 h, read-out: GI
SNB-75 [17] = test: Cytotoxicity against human SNB75 cells assessed as cell growth at 10^-6 M after 48 hrs by SRB assay; assay type: functional; details: SNB-75, 48 h, read-out: Activity

## C=CCn1c(C)nc2ccc(Nc3nc(Nc4ccc5nc(C)n(CC=C)c5c4)c4ccccc4n3)cc21
[1]
  growth at 0.1 µM: 92%
NCI-H23
  inhibition of growth at 10 µM: 50%
[2]
  inhibition of growth at 10 µM: 90%
[3]
  inhibition of growth at 10 µM: 40%
NCI-H226
  inhibition of growth at 10 µM: 30%
A549 [4]
  growth at 0.01 µM: 99%
BT-549
  inhibition of growth at 10 µM: 30%
[5]
  GI50: 1.57 µM
  TGI: 3.03 µM
A549 [6]
  growth at 100 µM: -14%
A549 [7]
  growth at 1 µM: 93%
A549 [8]
  growth at 0.1 µM: 101%
[9]
  growth at 100 µM: -49%
A549 [10]
  GI50: 1.72 µM
  TGI: 3.22 µM
OVCAR-3
  growth at 100 µM: -48%

## C=CCn1c(C)nc2ccc(Nc3nc(Nc4ccc(F)cc4)nc4ccccc34)cc21
[1]
  growth at 0.1 µM: 98%
NCI-H23
  inhibition of growth at 10 µM: 40%
[3]
  inhibition of growth at 10 µM: 50%
SNB-75 [11]
  GI50: 1.51 µM
  IC50: 7.5 µM
  TGI: 3.37 µM
A549 [4]
  growth at 0.01 µM: 94%
SNB-75 [12]
  growth at 0.01 µM: 76%
HT-29
  inhibition of growth at 10 µM: 70%
HCT-116
  inhibition of growth at 10 µM: 70%
BT-549
  inhibition of growth at 10 µM: 40%
[13]
  inhibition of growth at 10 µM: 50%
[5]
  GI50: 13.1 µM
  LC50 (concentration killing 50% of cells): 68.3 µM
  TGI: 29.9 µM
NCI-H522
  inhibition of growth at 10 µM: 40%
PC-3
  inhibition of growth at 10 µM: 50%
HL-60(TB)
  inhibition of growth at 10 µM: 40%
[14]
  inhibition of growth at 10 µM: 50%
COLO 205
  inhibition of growth at 10 µM: 50%
A549 [6]
  growth at 100 µM: -49%
SK-MEL-5
  inhibition of growth at 10 µM: 50%
HCT-15
  inhibition of growth at 10 µM: 50%
K562
  inhibition of growth at 10 µM: 70%
A549 [7]
  growth at 1 µM: 89%
A549 [8]
  growth at 0.1 µM: 97%
CCRF-CEM
  inhibition of growth at 10 µM: 70%
SR
  inhibition of growth at 10 µM: 70%
SNB-75 [15]
  growth at 0.1 µM: 80%
[9]
  growth at 100 µM: -73%
CAKI-1
  inhibition of growth at 10 µM: 40%
A549 [10]
  GI50: 4.18 µM
  LC50: > 100 µM
  TGI: 22.2 µM
OVCAR-3
  growth at 100 µM: -90%
SW-620
  inhibition of growth at 10 µM: 50%
MCF7
  inhibition of growth at 10 µM: 70%
UACC-62
  inhibition of growth at 10 µM: 30%
SNB-75 [16]
  growth at 100 µM: -57%
SK-MEL-28
  inhibition of growth at 10 µM: 30%
MDA-MB-468
  inhibition of growth at 10 µM: 50%
KM12
  inhibition of growth at 10 µM: 50%
SNB-75 [17]
  growth at 1 µM: 76%
